Reference: PMC9133015 (Nature Communications, 2022)
Several values for one entry are separate records, joined by “and”; a condition that tells them apart may be missing. Equal values may be shown once. Read-outs that look alike come from different tables or passages of the source.

Tests used:
Test in all cases: Kinase inhibitor specificity profiling (Reaction Biology Corporation)
Type in all cases: biochemical
Parameters in all cases: % Enzyme Activity (relative to DMSO controls): concentration or dose not given beside the values
[1] = target: T1, panel of 370 protein kinases (Homo sapiens, UniProt O00238); conditions: 2 h, kinase ALK6/BMPR1B; read-out: % Enzyme Activity (relative to DMSO controls)
T1 construct: purchased Reaction Biology Corporation (assay service)

[2] = target: T2, panel of 370 protein kinases (Homo sapiens, UniProt O14733); conditions: kinase MKK7
T2 construct: purchased Reaction Biology Corporation (assay service)

[3] = target: T3, panel of 370 protein kinases (Homo sapiens, UniProt O95819); conditions: 2 h, kinase HGK/MAP4K4; read-out: % Enzyme Activity (relative to DMSO controls)
T3 construct: purchased Reaction Biology Corporation (assay service)

[4] = target: T4, panel of 370 protein kinases (Homo sapiens, UniProt P05129); conditions: 2 h, kinase PKCg; read-out: % Enzyme Activity (relative to DMSO controls)
T4 construct: purchased Reaction Biology Corporation (assay service)

[5] = target: T5, panel of 370 protein kinases (Homo sapiens, UniProt P07333); conditions: 2 h, kinase FMS; read-out: % Enzyme Activity (relative to DMSO controls)
T5 construct: purchased Reaction Biology Corporation (assay service)

[6] = target: T6, panel of 370 protein kinases (Homo sapiens, UniProt P07948); conditions: 2 h, kinase LYN; read-out: % Enzyme Activity (relative to DMSO controls)
T6 construct: purchased Reaction Biology Corporation (assay service)

[7] = target: T7, panel of 370 protein kinases (Homo sapiens, UniProt P23443); conditions: 2 h, kinase p70S6K/RPS6KB1; read-out: % Enzyme Activity (relative to DMSO controls)
T7 construct: purchased Reaction Biology Corporation (assay service)

[8] = target: T8, panel of 370 protein kinases (Homo sapiens, UniProt P31751); conditions: 2 h, kinase AKT2; read-out: % Enzyme Activity (relative to DMSO controls)
T8 construct: purchased Reaction Biology Corporation (assay service)

[9] = target: T9, panel of 370 protein kinases (Homo sapiens, UniProt P36888); conditions: 2 h, kinase FLT3; read-out: % Enzyme Activity (relative to DMSO controls)
T9 construct: purchased Reaction Biology Corporation (assay service)

[10] = target: T10, panel of 370 protein kinases (Homo sapiens, UniProt P42680); conditions: 2 h, kinase TEC; read-out: % Enzyme Activity (relative to DMSO controls)
T10 construct: purchased Reaction Biology Corporation (assay service)

[11] = target: T11, panel of 370 protein kinases (Homo sapiens, UniProt P50750); conditions: 2 h, read-out: % Enzyme Activity (relative to DMSO controls)
T11 construct: purchased Reaction Biology Corporation (assay service)

[12] = target: T12, panel of 370 protein kinases (Homo sapiens, UniProt P51956); conditions: 2 h, kinase NEK3; read-out: % Enzyme Activity (relative to DMSO controls)
T12 construct: purchased Reaction Biology Corporation (assay service)

[13] = target: T13, panel of 370 protein kinases (Homo sapiens, UniProt Q13163); conditions: 2 h, kinase MEK5; read-out: % Enzyme Activity (relative to DMSO controls)
T13 construct: purchased Reaction Biology Corporation (assay service)

[14] = target: T14, panel of 370 protein kinases (Homo sapiens, UniProt Q13464); conditions: 2 h, kinase ROCK1; read-out: % Enzyme Activity (relative to DMSO controls)
T14 construct: purchased Reaction Biology Corporation (assay service)

[15] = target: T15, panel of 370 protein kinases (Homo sapiens, UniProt Q16816); conditions: 2 h, kinase PHKg1; read-out: % Enzyme Activity (relative to DMSO controls)
T15 construct: purchased Reaction Biology Corporation (assay service)

[16] = target: T16, panel of 370 protein kinases (Homo sapiens, UniProt Q8IW41); conditions: 2 h, kinase MAPKAPK5/PRAK; read-out: % Enzyme Activity (relative to DMSO controls)
T16 construct: purchased Reaction Biology Corporation (assay service)

[17] = target: T17, panel of 370 protein kinases (Homo sapiens, UniProt Q8NEV4); conditions: 2 h, kinase MYO3A; read-out: % Enzyme Activity (relative to DMSO controls)
T17 construct: purchased Reaction Biology Corporation (assay service)

[18] = target: T18, panel of 370 protein kinases (Homo sapiens, UniProt Q9NRM7); conditions: kinase LATS2
T18 construct: purchased Reaction Biology Corporation (assay service)

[19] = target: T19, panel of 370 protein kinases (Homo sapiens, UniProt Q9P289); conditions: 2 h, kinase MST4; read-out: % Enzyme Activity (relative to DMSO controls)
T19 construct: purchased Reaction Biology Corporation (assay service)

[20] = target: T20, panel of 370 protein kinases (Homo sapiens, UniProt Q9Y2K2); conditions: kinase SIK3
T20 construct: purchased Reaction Biology Corporation (assay service)

[21] = target: T21, panel of 370 protein kinases (Homo sapiens, UniProt Q9Y6E0); conditions: kinase MST3/STK24
T21 construct: purchased Reaction Biology Corporation (assay service)

[22] = target: T22, panel of 370 protein kinases (Homo sapiens, UniProt Q9Y6M4); conditions: kinase CK1G3
T22 construct: purchased Reaction Biology Corporation (assay service)
T22 sequence (Q9Y6M4 whole entry): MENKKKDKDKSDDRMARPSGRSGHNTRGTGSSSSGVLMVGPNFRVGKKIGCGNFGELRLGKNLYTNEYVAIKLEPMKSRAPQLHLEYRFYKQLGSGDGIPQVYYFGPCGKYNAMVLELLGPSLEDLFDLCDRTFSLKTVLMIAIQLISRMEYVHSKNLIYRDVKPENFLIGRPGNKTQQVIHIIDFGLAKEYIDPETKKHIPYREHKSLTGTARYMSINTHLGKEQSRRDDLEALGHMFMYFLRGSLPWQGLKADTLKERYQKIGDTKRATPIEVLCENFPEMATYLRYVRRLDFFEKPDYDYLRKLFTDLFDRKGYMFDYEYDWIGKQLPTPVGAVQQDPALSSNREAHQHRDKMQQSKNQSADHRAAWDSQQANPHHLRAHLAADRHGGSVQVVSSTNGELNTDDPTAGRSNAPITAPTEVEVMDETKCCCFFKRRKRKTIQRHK

T11 sequence (P50750 whole entry): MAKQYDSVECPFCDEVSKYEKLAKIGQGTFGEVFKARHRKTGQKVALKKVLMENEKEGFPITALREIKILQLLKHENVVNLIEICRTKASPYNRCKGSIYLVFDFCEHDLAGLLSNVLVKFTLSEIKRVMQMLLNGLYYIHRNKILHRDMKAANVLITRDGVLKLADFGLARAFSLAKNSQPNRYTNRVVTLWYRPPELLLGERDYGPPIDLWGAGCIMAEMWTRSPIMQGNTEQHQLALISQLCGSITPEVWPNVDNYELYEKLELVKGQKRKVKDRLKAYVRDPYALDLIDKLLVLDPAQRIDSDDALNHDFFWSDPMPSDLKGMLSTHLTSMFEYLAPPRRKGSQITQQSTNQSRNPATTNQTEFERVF
T21 sequence (Q9Y6E0 whole entry): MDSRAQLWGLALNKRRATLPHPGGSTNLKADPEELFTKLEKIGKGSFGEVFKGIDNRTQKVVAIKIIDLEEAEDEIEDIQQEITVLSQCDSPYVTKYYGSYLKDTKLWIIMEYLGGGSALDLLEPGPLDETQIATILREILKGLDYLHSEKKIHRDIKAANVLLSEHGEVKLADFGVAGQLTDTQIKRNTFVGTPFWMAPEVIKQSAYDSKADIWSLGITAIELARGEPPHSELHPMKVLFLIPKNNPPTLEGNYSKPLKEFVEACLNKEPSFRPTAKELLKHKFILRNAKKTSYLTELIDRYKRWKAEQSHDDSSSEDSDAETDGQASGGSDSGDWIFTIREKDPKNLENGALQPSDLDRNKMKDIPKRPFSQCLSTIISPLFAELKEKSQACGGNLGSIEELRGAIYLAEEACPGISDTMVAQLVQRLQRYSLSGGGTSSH
T18 sequence (Q9NRM7 whole entry): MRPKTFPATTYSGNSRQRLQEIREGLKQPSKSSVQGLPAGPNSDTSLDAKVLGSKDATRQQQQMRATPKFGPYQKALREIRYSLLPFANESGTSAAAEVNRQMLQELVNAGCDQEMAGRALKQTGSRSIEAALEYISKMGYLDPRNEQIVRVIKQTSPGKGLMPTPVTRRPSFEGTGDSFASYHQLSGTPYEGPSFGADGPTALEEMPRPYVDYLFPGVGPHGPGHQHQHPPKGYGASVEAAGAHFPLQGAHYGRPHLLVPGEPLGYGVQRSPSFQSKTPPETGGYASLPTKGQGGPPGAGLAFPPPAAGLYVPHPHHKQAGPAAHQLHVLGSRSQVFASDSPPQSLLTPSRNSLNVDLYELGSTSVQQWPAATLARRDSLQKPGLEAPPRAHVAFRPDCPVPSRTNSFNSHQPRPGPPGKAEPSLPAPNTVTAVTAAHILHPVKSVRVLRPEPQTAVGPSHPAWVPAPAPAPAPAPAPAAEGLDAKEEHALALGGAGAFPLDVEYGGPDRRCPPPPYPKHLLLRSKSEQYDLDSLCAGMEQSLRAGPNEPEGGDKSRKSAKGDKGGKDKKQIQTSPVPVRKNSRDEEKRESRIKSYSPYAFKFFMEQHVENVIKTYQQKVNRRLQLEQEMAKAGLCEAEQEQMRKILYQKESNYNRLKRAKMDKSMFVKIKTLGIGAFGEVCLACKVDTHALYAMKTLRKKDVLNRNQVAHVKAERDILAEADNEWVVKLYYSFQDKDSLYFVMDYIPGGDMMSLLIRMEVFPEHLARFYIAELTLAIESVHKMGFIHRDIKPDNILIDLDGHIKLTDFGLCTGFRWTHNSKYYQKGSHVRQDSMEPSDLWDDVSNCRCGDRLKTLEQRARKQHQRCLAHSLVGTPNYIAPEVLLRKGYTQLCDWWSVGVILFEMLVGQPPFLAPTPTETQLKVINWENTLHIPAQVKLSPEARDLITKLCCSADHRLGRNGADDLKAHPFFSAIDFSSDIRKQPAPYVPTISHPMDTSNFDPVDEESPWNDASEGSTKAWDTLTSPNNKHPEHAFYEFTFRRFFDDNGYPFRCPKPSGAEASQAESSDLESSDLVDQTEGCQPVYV
T2 sequence (O14733 whole entry): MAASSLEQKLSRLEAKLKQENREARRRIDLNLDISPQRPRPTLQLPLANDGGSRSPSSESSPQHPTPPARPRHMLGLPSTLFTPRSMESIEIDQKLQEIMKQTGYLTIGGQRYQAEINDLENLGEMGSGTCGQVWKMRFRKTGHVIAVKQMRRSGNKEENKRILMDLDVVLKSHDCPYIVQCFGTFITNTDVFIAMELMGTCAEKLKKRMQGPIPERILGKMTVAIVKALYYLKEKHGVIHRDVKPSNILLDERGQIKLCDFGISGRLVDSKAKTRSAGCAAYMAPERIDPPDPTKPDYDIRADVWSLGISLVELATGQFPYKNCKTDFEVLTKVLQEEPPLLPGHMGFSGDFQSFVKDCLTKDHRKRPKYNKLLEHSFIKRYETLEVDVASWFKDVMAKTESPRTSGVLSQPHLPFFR
T20 sequence (Q9Y2K2 whole entry): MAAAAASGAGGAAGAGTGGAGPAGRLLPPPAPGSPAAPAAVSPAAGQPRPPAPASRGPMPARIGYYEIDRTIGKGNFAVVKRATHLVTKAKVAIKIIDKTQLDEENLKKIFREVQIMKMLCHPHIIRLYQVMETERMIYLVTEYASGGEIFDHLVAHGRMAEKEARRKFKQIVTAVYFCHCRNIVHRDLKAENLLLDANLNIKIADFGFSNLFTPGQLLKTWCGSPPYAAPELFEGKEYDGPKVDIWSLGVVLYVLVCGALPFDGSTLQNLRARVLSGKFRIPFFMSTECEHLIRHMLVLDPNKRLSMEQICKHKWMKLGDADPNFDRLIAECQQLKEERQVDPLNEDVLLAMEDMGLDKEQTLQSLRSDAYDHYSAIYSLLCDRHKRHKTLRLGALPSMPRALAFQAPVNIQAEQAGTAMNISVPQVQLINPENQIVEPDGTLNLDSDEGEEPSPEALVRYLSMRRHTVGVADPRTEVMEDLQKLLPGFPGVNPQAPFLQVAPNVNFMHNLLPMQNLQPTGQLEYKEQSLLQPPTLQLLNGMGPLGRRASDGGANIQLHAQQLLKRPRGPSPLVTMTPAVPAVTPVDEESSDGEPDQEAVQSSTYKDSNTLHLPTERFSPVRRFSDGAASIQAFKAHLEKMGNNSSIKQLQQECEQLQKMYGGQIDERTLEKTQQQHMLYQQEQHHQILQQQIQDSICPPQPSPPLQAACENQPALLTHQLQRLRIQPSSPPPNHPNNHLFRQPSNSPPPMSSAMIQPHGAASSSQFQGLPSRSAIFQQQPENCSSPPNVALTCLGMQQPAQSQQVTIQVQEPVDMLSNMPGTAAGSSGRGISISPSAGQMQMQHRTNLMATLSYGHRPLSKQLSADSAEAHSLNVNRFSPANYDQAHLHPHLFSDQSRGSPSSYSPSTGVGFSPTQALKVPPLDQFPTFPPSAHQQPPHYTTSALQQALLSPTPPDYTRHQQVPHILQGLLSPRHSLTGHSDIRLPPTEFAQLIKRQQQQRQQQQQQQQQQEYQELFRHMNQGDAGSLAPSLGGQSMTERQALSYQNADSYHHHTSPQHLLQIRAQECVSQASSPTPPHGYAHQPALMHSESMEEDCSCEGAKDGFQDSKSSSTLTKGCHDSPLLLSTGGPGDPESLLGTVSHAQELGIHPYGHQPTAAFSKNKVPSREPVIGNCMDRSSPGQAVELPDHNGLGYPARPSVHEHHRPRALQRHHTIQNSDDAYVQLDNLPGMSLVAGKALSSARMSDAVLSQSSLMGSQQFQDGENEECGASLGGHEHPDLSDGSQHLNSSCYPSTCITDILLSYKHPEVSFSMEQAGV
T13 sequence (Q13163 whole entry): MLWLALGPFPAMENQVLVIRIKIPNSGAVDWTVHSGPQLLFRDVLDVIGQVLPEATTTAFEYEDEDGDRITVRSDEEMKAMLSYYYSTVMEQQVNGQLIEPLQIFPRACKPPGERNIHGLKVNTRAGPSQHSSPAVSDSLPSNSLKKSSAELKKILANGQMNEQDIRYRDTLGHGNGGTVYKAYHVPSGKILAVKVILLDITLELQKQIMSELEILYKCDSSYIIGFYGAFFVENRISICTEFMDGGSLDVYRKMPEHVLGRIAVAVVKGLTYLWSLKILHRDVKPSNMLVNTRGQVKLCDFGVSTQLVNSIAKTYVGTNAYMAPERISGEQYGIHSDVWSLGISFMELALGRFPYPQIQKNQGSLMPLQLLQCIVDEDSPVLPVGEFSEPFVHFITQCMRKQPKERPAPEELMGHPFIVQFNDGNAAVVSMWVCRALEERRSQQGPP
T12 sequence (P51956 whole entry): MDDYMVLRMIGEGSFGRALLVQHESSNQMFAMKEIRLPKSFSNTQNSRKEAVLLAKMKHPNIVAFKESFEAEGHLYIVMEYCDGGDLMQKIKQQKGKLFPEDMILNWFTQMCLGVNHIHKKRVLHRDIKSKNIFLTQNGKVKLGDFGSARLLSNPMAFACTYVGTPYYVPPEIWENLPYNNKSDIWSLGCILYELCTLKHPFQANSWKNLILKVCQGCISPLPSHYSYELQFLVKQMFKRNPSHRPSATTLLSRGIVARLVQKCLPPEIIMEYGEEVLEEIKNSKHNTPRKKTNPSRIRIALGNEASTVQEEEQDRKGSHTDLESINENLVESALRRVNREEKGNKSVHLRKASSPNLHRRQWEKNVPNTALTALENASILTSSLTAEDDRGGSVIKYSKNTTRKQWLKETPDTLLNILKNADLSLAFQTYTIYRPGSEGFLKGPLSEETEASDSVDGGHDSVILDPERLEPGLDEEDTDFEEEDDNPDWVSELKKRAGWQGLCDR

CCN1CCN(C(=O)c2ccc(Nc3ncc(F)c(-c4ccc5nc(N(C)C)sc5c4)n3)nc2)CC1 [YK-2-69]
remaining activity at 1 µM [1]: 90.5% | % Enzyme Activity (relative to DMSO controls) [2]: 97.65% and 97.50% | remaining activity at 1 µM [3]: 86.8% | remaining activity at 1 µM [4]: 90.9% | remaining activity at 1 µM [5]: 94.5% | remaining activity at 1 µM [6]: 93.9% | remaining activity at 1 µM [7]: 99.7% | remaining activity at 1 µM [8]: 98.6% | remaining activity at 1 µM [9]: 92.7% | remaining activity at 1 µM [10]: 107% | remaining activity at 1 µM ([11]; kinase CDK9/CYCLIN K): 96.3% | remaining activity at 1 µM ([11]; kinase CDK9/cyclin T1): 90.8% | remaining activity at 1 µM ([11]; kinase CDK9/cyclin T2): 96.8% | remaining activity at 1 µM [12]: 73.1% | remaining activity at 1 µM [13]: 96.3% | remaining activity at 1 µM [14]: 92.8% | remaining activity at 1 µM [15]: 89.4% | remaining activity at 1 µM [16]: 98.5% | remaining activity at 1 µM [17]: 103% | % Enzyme Activity (relative to DMSO controls) [18]: 96.27% and 92.88% | remaining activity at 1 µM [19]: 98.4% | % Enzyme Activity (relative to DMSO controls) [20]: 100.12% and 97.59% | % Enzyme Activity (relative to DMSO controls) [21]: 107.35% and 104.50% | % Enzyme Activity (relative to DMSO controls) [22]: 114.34% and 110.21%
